According to the supplement of paper PMC8183993:
Where a name gives a salt, the structure may show the parent alone.

Columns and labels:
Details in all cases: 24 h
U2OS [1] = test: nuclei count in OPP assay relative to DMSO (% of DMSO); higher = more viable cells
Procedure: (§1)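 Validation screen in U2OS cells: hits tested at 1, 3 and 10 uM for 24 h in duplicate plates. Translation was read by OPP incorporation (1 h pulse) and HPG incorporation (30 min in methionine-free medium), quantified by high-throughput microscopy alongside nuclei counts. All values are normalised to DMSO (= 100).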

U2OS [2] = test: nuclei count in HPG assay relative to DMSO (% of DMSO); higher = more viable cells
Procedure: as §1

U2OS [3] = test: mean OPP incorporation (global translation) relative to DMSO (% of DMSO); higher = more protein synthesis
Procedure: as §1

U2OS [4] = test: mean HPG incorporation (global translation) relative to DMSO (% of DMSO); higher = more protein synthesis
Procedure: as §1

| Structure (SMILES) | nuclei count in OPP assay (U2OS [1]; 1 µM) | nuclei count in OPP assay (U2OS [1]; 3 µM) | nuclei count in OPP assay (U2OS [1]; 10 µM) | nuclei count in HPG assay (U2OS [2]; 1 µM) | nuclei count in HPG assay (U2OS [2]; 3 µM) | nuclei count in HPG assay (U2OS [2]; 10 µM) | mean OPP incorporation (U2OS [3]; 1 µM) | mean OPP incorporation (U2OS [3]; 3 µM) | mean OPP incorporation (U2OS [3]; 10 µM) | mean HPG incorporation (U2OS [4]; 1 µM) | mean HPG incorporation (U2OS [4]; 3 µM) | mean HPG incorporation (U2OS [4]; 10 µM) |
| --- | --- | --- | --- | --- | --- | --- | --- | --- | --- | --- | --- | --- |
| CC(C)n1nc(-c2ccc3oc(N)nc3c2)c2c(N)ncnc21 [INK 128 (MLN0128)] | 79.2 | 68.8 | 69.8 | 76 | 80.6 | 72.8 | 28.2 | 29.2 | 30 | 32.9 | 29.4 | 28.2 |
| Cc1ccc(NC(=O)c2ccc(CN3CCN(C)CC3)cc2)cc1Nc1nccc(-c2cccnc2)n1 [Imatinib (STI571)] | 97.6 | 97.7 | 95.9 | 102 | 97.7 | 92.4 | 113 | 122 | 131 | 91.5 | 111 | 121 |
| N#CC(c1ccnc(NCCc2cccnc2)n1)c1nc2ccccc2s1 (configuration not stated) [JNK Inhibitor V] | 104 | 94.1 | 79.9 | 105 | 93.9 | 77 | 122 | 127 | 110 | 122 | 133 | 85.5 |
| O=[N+]([O-])c1ccccc1S(=O)(=O)NCC1CCC(CNCC2CCc3ccccc3C2)CC1 (configuration not stated) [NTNCB hydrochloride] | 101 | 98.3 | 74.4 | 95.8 | 90.7 | 87.6 | 106 | 115 | 110 | 98 | 104 | 56.8 |
| Cn1cc(-c2ccc3ncc(Cc4ccc5ncccc5c4)n3n2)cn1 [NVP-BVU972] | 104 | 79.7 | 89.8 | 107 | 85.5 | 88.5 | 91 | 107 | 124 | 114 | 132 | 138 |
| Cc1cn(-c2cc(NC(=O)c3ccc(C)c(Nc4nccc(-c5cccnc5)n4)c3)cc(C(F)(F)F)c2)cn1 [Nilotinib (AMN-107)] | 96.6 | 94.2 | 80.2 | 101 | 91.3 | 98.5 | 112 | 120 | 116 | 95 | 93.5 | 92.5 |
| O=C(Nc1ccc(OC(F)(F)F)cc1)c1sccc1NCc1ccnc2ccccc12 [OSI-930] | 98 | 89.7 | 91.2 | 96.9 | 98.1 | 92 | 99.3 | 101 | 114 | 93.9 | 92.7 | 64.2 |
| Cc1cc(CS(=O)(=O)c2ccccc2)cc(OCc2ccc(CN3CCC[C@@H]3CO)cc2)c1 [PF-543] | 104 | 98.9 | 94.3 | 102 | 99.2 | 92.2 | 111 | 117 | 130 | 97.1 | 81.9 | 89.6 |
| COc1ccccc1S(=O)(=O)Nc1ccc2c(c1)CN(C)C(=O)N2 [PFI-1] | 99.5 | 106 | 106 | 103 | 101 | 101 | 83.4 | 56.2 | 45.9 | 95.7 | 93.2 | 87 |
| Nc1ccc(-c2cccc3c(=O)cc(N4CCOCC4)oc23)cc1 [PI 828] | 101 | 89.8 | 81.9 | 108 | 94.6 | 85.2 | 92.1 | 83.1 | 54.1 | 73.5 | 64.3 | 41.5 |
| CC[C@@H]1/C=C(\C)C[C@H](C)C[C@H](OC)[C@H]2O[C@@](O)(C(=O)C(=O)N3CCCC[C@H]3C(=O)O[C@H](/C(C)=C/[C@@H]3CC[C@H](Cl)[C@H](OC)C3)[C@H](C)[C@@H](O)CC1=O)[C@H](C)C[C@@H]2OC [Pimecrolimus] | 101 | 106 | 95.5 | 103 | 101 | 92.5 | 125 | 123 | 124 | 108 | 113 | 99.6 |
| CCOc1cc(C(=O)Nc2ccc(Cl)c(-c3nc4ccccc4[nH]3)c2)cc(OCC)c1OCC [SANT-2] | 102 | 109 | 104 | 102 | 105 | 97.5 | 117 | 114 | 121 | 97.5 | 92.7 | 74.1 |
| Oc1ccc(Nc2nc(-c3ccc(Cl)cc3)cs2)cc1 [SKI II] | 88.5 | 85.3 | 75.2 | 99 | 88.9 | 72.6 | 91 | 83.5 | 69.5 | 92.6 | 79.3 | 55.7 |
| COc1nc(-c2ccc3c(c2)OCO3)n(-c2ccc(NC(=O)CSc3ccccc3)cc2)n1 [SecinH3] | 105 | 105 | 98.9 | 107 | 96.8 | 100 | 106 | 117 | 121 | 107 | 100 | 93.3 |
| CC(C)n1nc(-c2cc3cc(O)ccc3[nH]2)c2c(N)ncnc21 [Torkinib (PP242)] | 96 | 81.7 | 74.7 | 96.6 | 83 | 76.6 | 58.4 | 37.4 | 27.3 | 42.9 | 32.7 | 30.9 |
| CCCc1cc(C)[nH]c(=O)c1CNC(=O)c1cc(-c2ccc(N3CCN(C(C)C)CC3)nc2)cc2c1cnn2C(C)C [UNC1999] | 89.3 | 93.6 | 73.9 | 93.7 | 94.7 | 80.6 | 108 | 119 | 122 | 111 | 119 | 77.1 |
